Calls of active or inactive are those of the source.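 The calls were made as follows: active = inhibition of 30% or more at 100 µM, inferred from the inactive rule; inactive = inhibition below 30% at 100 µM.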
Molecular target: Serine/threonine-protein phosphatase 5 (Homo sapiens) (UniProt P53041)
Test: PP5 inhibitors on histone substrate, late-stage follow-up, orthogonal assay for PP5 inhibitor project, biochemical, radiolabel, round 5, powder samples (AID 624435)
Conditions: purified PP5c, 33P-phosphohistone dephosphorylation, scintillation; at 50 µM; hits give high values

Serine/threonine-protein phosphatase 5 (Homo sapiens), sequence (P53041 whole entry, looked up): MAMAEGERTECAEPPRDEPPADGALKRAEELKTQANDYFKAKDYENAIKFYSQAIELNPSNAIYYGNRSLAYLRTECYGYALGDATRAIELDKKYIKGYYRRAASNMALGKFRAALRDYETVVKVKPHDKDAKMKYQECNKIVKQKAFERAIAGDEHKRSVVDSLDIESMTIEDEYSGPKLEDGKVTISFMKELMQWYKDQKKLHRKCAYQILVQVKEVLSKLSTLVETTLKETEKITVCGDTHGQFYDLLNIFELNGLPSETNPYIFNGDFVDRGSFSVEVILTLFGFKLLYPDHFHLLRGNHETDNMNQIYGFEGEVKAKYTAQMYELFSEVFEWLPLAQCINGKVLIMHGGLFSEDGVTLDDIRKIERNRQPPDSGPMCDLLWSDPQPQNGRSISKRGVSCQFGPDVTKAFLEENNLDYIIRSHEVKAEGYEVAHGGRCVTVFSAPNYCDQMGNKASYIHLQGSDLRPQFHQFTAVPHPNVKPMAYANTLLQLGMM

SMILES | inhibition
O=C(O)c1ncn[nH]1 | 2.61% (inactive)
O=C(O)c1ccccc1-c1ccccc1 | -5.88% (inactive)
O=C(O)Cn1nnc2ccccc21 | 0.388% (inactive)
O=C(O)c1nc2ncccn2n1 | -1.84% (inactive)
O=C(O)c1cn[nH]n1 | -0.0127% (inactive)
Cc1n[nH]nc1C(=O)O | -4.84% (inactive)
O=C(O)CCn1nnc2ccccc21 | 0.241% (inactive)
O=C(O)c1nnn(-c2ccccc2)c1-c1ccccc1 | 0.733% (inactive)
O=C(O)c1cn(Cc2ccccc2)nn1 | -4.42% (inactive)
O=C(O)c1nc(-n2cccc2)n[nH]1 | -1.61% (inactive)
O=C(O)c1ccccc1-n1cccc1 | -7.51% (inactive)
O=C(O)c1cccn1-c1ccccc1 | -3.17% (inactive)
O=C(O)c1n[nH]nc1-c1ccccn1 | 31.5%
O=C(O)c1nn(Cc2ccccc2)nc1Cl | 0.71% (inactive)
O=C(O)c1csc(Nc2ccccc2)n1 | -0.948% (inactive)

Results, then the compound that gave them:

inhibition | SMILES
-6.61% (inactive) | O=C(O)c1cc(-c2ccccc2)ncn1
39% | Cc1ccccc1-c1n[nH]nc1C(=O)O
-2.5% (inactive) | O=C(O)c1cc2cccnc2[nH]1
2.84% (inactive) | Cc1cccc(-n2cnc(C(=O)O)c2)c1
-2.66% (inactive) | Cc1onc(C(=O)O)c1Cn1cccn1
-5.7% (inactive) | O=C(O)c1cn[nH]c1-c1ccccc1
2.2% (inactive) | O=C(O)c1n[nH]nc1-c1cccnc1
0.116% (inactive) | O=C(O)c1ccccc1-c1nn[nH]n1
-4.55% (inactive) | O=C(O)c1cc(-c2ccccc2)n[nH]1
1.67% (inactive) | COC(=O)c1n[nH]nc1-c1ccccc1
-5.1% (inactive) | O=C(O)c1cnn2ccccc12
44.3% | CCc1ccccc1-c1n[nH]nc1C(=O)O
-0.0487% (inactive) | O=C(O)c1cc2ccccn2n1
-1.07% (inactive) | O=C(O)c1n[nH]c2ccccc12
-2.04% (inactive) | O=C(O)c1c[nH]cc1-c1ccccc1
-5.14% (inactive) | Cc1cccc(-c2noc(C)c2C(=O)O)c1
30.2% | CC(C)c1ccccc1-c1n[nH]nc1C(=O)O
-0.78% (inactive) | O=C(O)c1c(-c2ccccc2)nnc2ccccc12
41.2% | O=C(O)c1n[nH]nc1-c1ccccc1-c1ccccc1
67.5% | CC(C)Oc1ccccc1-c1n[nH]nc1C(=O)O
-4.13% (inactive) | Cc1scc(C(=O)O)c1-c1ccccc1
